Measured values from ChEMBL document CHEMBL1641597, “An efficient one-pot synthesis of benzothiazolo-4β-anilino-podophyllotoxin congeners: DNA topoisomerase-II inhibition and anticancer activity” (Bioorg Med Chem Lett, 2011).
Where a name gives a salt, the structure may show the parent alone. The source made the active and inactive calls. The calls are words filed in the database; no cut-off is given here.

Tests used:
[1] = target: DNA topoisomerase 2-alpha (Rattus norvegicus) (UniProt P41516); test: Inhibition of rat brain topoisomerase 2 assessed as relaxation of supercoiled pBR322 DNA
Sequence of DNA topoisomerase 2-alpha (Rattus norvegicus) (P41516 whole entry): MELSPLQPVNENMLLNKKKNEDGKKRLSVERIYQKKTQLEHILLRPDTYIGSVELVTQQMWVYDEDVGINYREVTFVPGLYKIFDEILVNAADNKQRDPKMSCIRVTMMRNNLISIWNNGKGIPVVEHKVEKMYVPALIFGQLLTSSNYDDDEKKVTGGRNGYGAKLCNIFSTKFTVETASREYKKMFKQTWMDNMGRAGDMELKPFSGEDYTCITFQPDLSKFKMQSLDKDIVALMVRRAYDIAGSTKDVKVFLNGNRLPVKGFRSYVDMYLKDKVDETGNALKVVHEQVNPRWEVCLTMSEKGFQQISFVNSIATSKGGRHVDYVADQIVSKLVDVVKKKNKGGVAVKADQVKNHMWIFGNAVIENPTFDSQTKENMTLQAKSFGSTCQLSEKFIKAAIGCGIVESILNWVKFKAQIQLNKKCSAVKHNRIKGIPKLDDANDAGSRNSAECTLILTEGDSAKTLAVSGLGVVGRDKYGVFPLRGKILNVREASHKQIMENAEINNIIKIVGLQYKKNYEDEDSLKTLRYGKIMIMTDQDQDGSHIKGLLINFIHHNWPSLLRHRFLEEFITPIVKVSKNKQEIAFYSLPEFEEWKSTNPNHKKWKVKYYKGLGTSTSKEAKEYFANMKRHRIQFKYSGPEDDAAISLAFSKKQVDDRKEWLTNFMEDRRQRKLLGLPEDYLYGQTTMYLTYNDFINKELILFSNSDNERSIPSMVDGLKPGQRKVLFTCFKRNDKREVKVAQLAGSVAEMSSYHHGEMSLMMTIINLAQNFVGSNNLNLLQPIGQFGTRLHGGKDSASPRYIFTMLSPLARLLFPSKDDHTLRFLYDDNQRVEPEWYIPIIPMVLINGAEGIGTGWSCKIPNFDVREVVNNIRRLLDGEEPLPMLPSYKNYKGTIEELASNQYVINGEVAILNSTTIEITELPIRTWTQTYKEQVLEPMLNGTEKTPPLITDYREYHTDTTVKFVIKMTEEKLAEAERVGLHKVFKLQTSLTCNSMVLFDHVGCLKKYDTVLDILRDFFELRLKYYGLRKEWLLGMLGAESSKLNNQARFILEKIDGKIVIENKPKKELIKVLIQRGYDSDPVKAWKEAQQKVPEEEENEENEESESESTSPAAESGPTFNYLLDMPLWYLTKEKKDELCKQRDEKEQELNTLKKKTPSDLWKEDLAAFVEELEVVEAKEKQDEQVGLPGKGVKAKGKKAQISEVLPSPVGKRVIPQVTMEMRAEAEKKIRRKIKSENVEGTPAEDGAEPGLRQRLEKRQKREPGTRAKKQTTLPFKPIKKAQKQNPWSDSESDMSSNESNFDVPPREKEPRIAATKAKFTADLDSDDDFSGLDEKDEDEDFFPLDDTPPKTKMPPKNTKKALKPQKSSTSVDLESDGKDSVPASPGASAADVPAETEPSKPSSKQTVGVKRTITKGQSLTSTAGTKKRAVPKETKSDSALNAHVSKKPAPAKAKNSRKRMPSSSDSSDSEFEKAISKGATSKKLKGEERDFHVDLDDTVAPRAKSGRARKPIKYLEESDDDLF

HOP-62 = test: Cytotoxicity against human HOP62 assessed as inhibition of cell growth; format: functional, cell-based
HT-1080 = test: Cytotoxicity against human HT1080 assessed as inhibition of cell growth; format: functional, cell-based
COLO 205 = test: Cytotoxicity against human COLO205 assessed as inhibition of cell growth; format: functional, cell-based
[2] = Cytotoxicity against human DWD assessed as inhibition of cell growth; format: functional

Compound	inhibition [1]	IC50 (HOP-62)	IC50 (HT-1080)	IC50 (COLO 205)	IC50 [2]
COc1ccc2nc(-c3ccc(N[C@@H]4c5cc6c(cc5[C@@H](c5cc(OC)c(O)c(OC)c5)[C@H]5C(=O)OC[C@@H]54)OCO6)cc3)sc2c1	Active				
COc1cc([C@@H]2c3cc4c(cc3[C@@H](Nc3ccc(-c5nc6ccccc6s5)c(Cl)c3)[C@H]3COC(=O)[C@H]23)OCO4)cc(OC)c1O		8.6 µM	> 80 µM	8.3 µM	6.5 µM
COc1cc([C@@H]2c3cc4c(cc3[C@@H](Nc3ccc(-c5nc6ccccc6s5)cc3)[C@H]3COC(=O)[C@H]23)OCO4)cc(OC)c1O	Active	30.1 µM	9.7 µM	2.7 µM	2.3 µM
COc1cc([C@@H]2c3cc4c(cc3[C@@H](Nc3ccc(-c5nc6ccccc6s5)cc3)[C@H]3COC(=O)[C@H]23)OCO4)cc(OC)c1OC	Active	> 80 µM	8.2 µM	8.1 µM	22 µM
COc1cc([C@@H]2c3cc4c(cc3[C@@H](Nc3ccc(-c5nc6ccccc6s5)cc3Br)[C@H]3COC(=O)[C@H]23)OCO4)cc(OC)c1O	Active				
COc1cc([C@@H]2c3cc4c(cc3[C@H](O)[C@H]3COC(=O)[C@H]23)OCO4)cc(OC)c1OC [PODOFILOX]		13.1 µM	8.1 µM	5 µM	6.1 µM
COc1cccc2c1C(=O)c1c(O)c3c(c(O)c1C2=O)C[C@@](O)(C(=O)CO)C[C@@H]3O[C@H]1C[C@H](N)[C@H](O)[C@H](C)O1 [DOXORUBICIN HYDROCHLORIDE]		5.4 µM	4.7 µM	5.1 µM	2.8 µM
COc1cc([C@@H]2c3cc4c(cc3[C@@H](Nc3ccc(-c5nc6c(Cl)cccc6s5)cc3)[C@H]3COC(=O)[C@H]23)OCO4)cc(OC)c1OC		60.3 µM	9.1 µM	7.1 µM	7.3 µM
COc1ccc2nc(-c3ccc(N[C@@H]4c5cc6c(cc5[C@@H](c5cc(OC)c(OC)c(OC)c5)[C@H]5C(=O)OC[C@@H]54)OCO6)cc3)sc2c1		15.2 µM	9.5 µM	7 µM	5.2 µM
COc1cc([C@@H]2c3cc4c(cc3[C@@H](Nc3ccc(-c5nc6c(Cl)cccc6s5)cc3)[C@H]3COC(=O)[C@H]23)OCO4)cc(OC)c1O		10.1 µM	> 80 µM	8.3 µM	9.1 µM
